Results published in PMC6451765 (Journal of biomolecular structure & dynamics, 2013).

Biological target: 5-HT2B (Homo sapiens, UniProt P41595)
Type: binding

Sequence of 5-HT2B (P41595 whole entry): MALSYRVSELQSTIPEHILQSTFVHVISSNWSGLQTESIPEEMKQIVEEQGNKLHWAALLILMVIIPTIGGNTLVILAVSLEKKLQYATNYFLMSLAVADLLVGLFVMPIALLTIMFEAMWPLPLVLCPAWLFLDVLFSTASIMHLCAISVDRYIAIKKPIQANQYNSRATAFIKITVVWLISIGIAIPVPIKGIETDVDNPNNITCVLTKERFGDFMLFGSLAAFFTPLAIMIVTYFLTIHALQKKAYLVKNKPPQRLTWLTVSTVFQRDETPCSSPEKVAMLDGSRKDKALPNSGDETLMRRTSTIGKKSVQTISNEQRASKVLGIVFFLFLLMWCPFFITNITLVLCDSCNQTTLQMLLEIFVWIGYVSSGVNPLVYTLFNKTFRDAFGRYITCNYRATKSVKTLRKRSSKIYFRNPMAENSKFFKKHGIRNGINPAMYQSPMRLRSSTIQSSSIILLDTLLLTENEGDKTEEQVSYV

FC(F)OC(Cl)C(F)(F)F (centres unmarked) [I, isoflurane]
Ki: 7.78 µM

CC(C)c1cccc(C(C)C)c1O [P, propofol]
Ki: 0.95 µM
